Data: patent US20160158317A1, “Antimicrobial Peptide Variants and Polynucleotides Encoding Same” (Adenium Biotech A/S, priority 2010, published 2016)
Values joined by “and” are separate entries in the source; they are usually repeats but may differ in a detail not shown here. Identical values can stand only once. Marks after values point to notes of the source that are not given here.

System: E. coli AID#172
Experiment: Neutropenic murine peritonitis/sepsis model, dose-response and estimation of ED50 (Example 2)
Type: in vivo, Escherichia coli
Set-up: key to Clinical score T = 0 hour / Clinical score T = 5 hours: Score 0: Healthy.; Score 1: Minor clinical signs of infection and inflammation e.g. observations of minor signs of distress or changed activity.; Score 2: Clear signs of infection like, social withdrawal, lack of curiosity, changed body position, piloerection, or changes in pattern of movement.; Score 3: Severe signs of infection like stiff movements, lack of curiosity, changed body position, piloerection, pain, or changes in pattern of movement.; Score 4: Severe pain and the mouse was sacrificed immediately to minimize the suffering of the animal.; Score 5: The mouse was dead
Description: The purpose of this study was to investigate the dose-response relationship following intravenous (i.v.) administration of a single dose of NZ17074 ranging from 0.16-12 mg/kg. The effect was tested against E. coli AID#172 in the neutropenic peritonitis model. Treatment with 40 mg/kg meropenem was included as a positive control group. The colony counts in blood and peritoneal fluid were determined at 5 hours after treatment.
The murine peritonitis/sepsis model is a well-recognized model for studies of antimicrobial activity as described by N. Frimodt-Møller and J. D. Knudsen in Handbook of Animal Models of Infection (1999), ed. by O. Zak & M. A. Sande, Academic Press, San Diego, US.
• 30 outbred, NMRI female mice, 25-30 grams (Harlan Scandinavia) • E. coli AID#172 from Statens Serum Institute, Copenhagen, Denmark. Clinical isolate from a human wound from 2003. Multiresistant (Ampicillin, Ceftazidime, Aztreonam, Gentamicin, Ciprofloxacin) • NZ17074 in Ringer Acetate, pH 6: 1.2 mg/ml, 6.0 ml. The solution was stored at 4° C. until use. Analyses of the dose formulations used were performed after completion of the in-life phase of the study and gave the following results:
The mice were rendered neutropenic by injecting 0.5 ml cyclophosphamide solution intraperitoneally 4 days (200 mg/kg) and 1 day (100 mg/kg) prior to inoculation.
Fresh overnight E. coli AID#172 colonies from a 5% Horse Blood Agar plate were suspended and diluted in sterile saline to approximately 2×10^6 CFU/ml. One hour before start of treatment (time −1 hr) mice were inoculated intraperitoneally with 0.5 ml of the E. coli suspension in the lateral lower quadrant of the abdomen. Approximately ½-1 hour after treatment, mice were treated orally with 45 microliters neurophen (20 mg ibuprofen/ml corresponding to 30 mg/kg) as a pain relief.
The mice were treated i.v. in the lateral tail vein over approximately 30 seconds with 10 ml/kg with a single dose of NZ17074, meropenem or vehicle at time 0 hour (see Table 1). The dosing was based on a mean weight of 30 g. Mice that weighed 28-32 g received 0.30 ml solution. Mice that weighed 27-28 g received 0.25 ml solution and mice that weighed 32.1-36 g received 0.35 ml solution.
The mice were observed during the study and scored 0-5 based on their behaviour and clinical signs. • Score 0: Healthy. • Score 1: Minor clinical signs of infection and inflammation e.g. observations of minor signs of distress or changed activity. • Score 2: Clear signs of infection like, social withdrawal, lack of curiosity, changed body position, piloerection, or changes in pattern of movement. • Score 3: Severe signs of infection like stiff movements, lack of curiosity, changed body position, piloerection, pain, or changes in pattern of movement. • Score 4: Severe pain and the mouse was sacrificed immediately to minimize the suffering of the animal. • Score 5: The mouse was dead.
Colony counts were determined from blood and peritoneal fluid at 0 and 5 hours. The mice were anaesthetized with CO2+O2 and blood was collected from axillary cutdown in 1.5 ml EDTA coated eppendorf tubes. The mice were sacrificed immediately after blood sampling and a total of 2 ml sterile saline was injected i.p. and the abdomen gently massaged before it was opened and fluid sampled with a pipette. Each sample was then 10 fold diluted in saline and 20-microliter spots were applied on blue agar plates. All agar plates were incubated 18-22 hours at 35° C. in ambient air.
The colony counts were performed at the start of treatment and 5 hours after treatment. The CFU numbers are log10 transformed before performing calculations.

C[C@@H](O)[C@H]1C(=O)N2C(C(=O)O)=C(S[C@@H]3CN[C@H](C(=O)N(C)C)C3)[C@H](C)[C@H]12 [meropenem]
CFU levels in blood and peritoneal fluid compared to vehicle (40 mg/kg i.v., 5 hours, blood p<0.05, peritoneal fluid p<0.01): significant reduction | Clinical score T = 0 hour (Meropenem 40 mg/kg single dose group, score at start of treatment, individual mice): 1 | log10 CFU Mean Blood (Meropenem 40 mg/kg single dose, blood, T = 5, group mean, p < 0.05 vs vehicle): 2.38* log10 CFU/ml | log10 CFU Blood (Meropenem 40 mg/kg single dose, blood, T = 5, individual mice): 2.48 log10 CFU/ml and 1.70 log10 CFU/ml and 2.95 log10 CFU/ml | Clinical score T = 5 hours (Meropenem 40 mg/kg single dose, individual mice): 1 (2×) and 0 | log10 CFU mean PF (Meropenem 40 mg/kg single dose, peritoneal fluid, T = 5, group mean, p < 0.01 vs vehicle): 2.64** log10 CFU/ml | log10 CFU PF (Meropenem 40 mg/kg single dose, peritoneal fluid, T = 5, individual mice): 3.92 log10 CFU/ml and 1.70 log10 CFU/ml and 2.30 log10 CFU/ml
